{"source": "patent US20170333560A1", "about": "“Pharmaceutical Composition That Includes A Neutral Carrier Treated With Energy And Related Methods Of Treatment” (priority 2016, published 2017)", "key": {"male albino Wistar rats [1]": {"system": "male albino Wistar rats", "experiment": "Nomura forced-rotating-wheel swim test", "assay_type": "in vivo, rat", "details": "compared to controls; single intragastric dose; 10 minutes", "procedure": "(§1) A study was conducted to evaluate the antidepressant effect of the claimed drug, formulated as a water solution (liquid dosage form) of the activated (potentized) energy-treated carrier, obtained by multiple consecutive dilution of the initial matrix solution in an aqueous-alcoholic diluent, combined with external mechanical impact—shaking of each resulting dilution, to a degree of 100^200, equivalent to a centesimal (C200) homeopathic dilution (wherein the energy treatment of the initial neutral carrier has been accomplished by exposing it to an electric current caused by a difference of potentials being applied to electrodes placed in the initial liquid carrier and which is proportional in amplitude to an amplified combined, summed up signal, formed by summing the resultant signals—biopotential differences of individual referential derivations recorded in five healthy donors using the internationally recognized 10-20 system, which involves 19 active recording electrodes placed in regular positions all over the scalp and one reference electrode located on the ear-lobe)—further referred to as AP drug, using standard experimental approaches—by examining animals' depression-like behavior (behavioral despair) in the Porsolt forced swimming test and Nomura's model employing forced-rotating-wheel swim test. […]"}, "male albino Wistar rats [2]": {"system": "male albino Wistar rats", "experiment": "Porsolt forced swimming test", "assay_type": "in vivo, rat", "details": "compared to controls; single intragastric dose", "procedure": "as §1"}}}
{"molecule": "CN(C)CCC=C1c2ccccc2CCc2ccccc21", "note": "[reference compound, amitriptyline]", "values": [{"measurement": "Increase of number of wheel rotations", "setting": "male albino Wistar rats [1]", "value": 67, "unit": "%"}, {"measurement": "Reduction of immobility time", "setting": "male albino Wistar rats [2]", "value": 56, "unit": "%"}]}
